Structures can show the parent of a compound that is named as a salt.
Biological target: T1, human α7 nAChR (Homo sapiens, UniProt P36544)
T1 construct: host or cells: GH4C1 cells (pituitary tumor, immortalized cell line)
Experiment: α7 nAChR FLIPR (Fluorometric Imaging Plate Reader) Ca2+ assay, agonist EC50
Format: cell-based
Settings: GH4C1 cells stably transfected with human α7 nAChR; Fluo-4 Ca2+ fluorescence; Examples 194 to 205 tested as the HCl salt; read-out: pEC50 value (negative logarithm of the agonist EC50) (converted)
Summary of the method: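 GH4C1 cells stably expressing human α7 nAChR, loaded with 2 μM Fluo-4 for 45–60 min at 37 °C in HEPES buffer pH 7.3 with 2 mM CaCl2 and 2.5 mM probenecid. Peak calcium fluorescence (ex 488, em 510–580 nm) after compound addition fitted for agonist EC50, reported as pEC50.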

T1 sequence (P36544 23-502): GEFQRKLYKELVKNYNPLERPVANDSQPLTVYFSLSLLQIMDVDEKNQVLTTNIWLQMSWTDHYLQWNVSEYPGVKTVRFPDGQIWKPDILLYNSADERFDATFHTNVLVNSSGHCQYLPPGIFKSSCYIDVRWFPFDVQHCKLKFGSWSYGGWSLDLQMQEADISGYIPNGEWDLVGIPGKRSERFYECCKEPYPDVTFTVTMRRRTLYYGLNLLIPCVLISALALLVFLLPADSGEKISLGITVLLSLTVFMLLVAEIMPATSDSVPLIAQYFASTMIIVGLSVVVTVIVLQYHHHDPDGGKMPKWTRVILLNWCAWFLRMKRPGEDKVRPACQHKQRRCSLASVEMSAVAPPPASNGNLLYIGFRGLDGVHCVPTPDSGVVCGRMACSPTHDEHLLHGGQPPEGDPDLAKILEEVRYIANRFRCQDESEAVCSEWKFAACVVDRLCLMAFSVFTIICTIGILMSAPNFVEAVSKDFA

Compound | EC50
O=C(Nc1ccc(-c2nnc(NCCCCN3CCCCC3)o2)c(Cl)c1)C1CCCCC1 [Example 164, N-[3-chloro-4-(5-{[4-(1-piperidinyl)butyl]amino}-1,3,4-oxadiazol-2-yl)phenyl]cyclohexanecarboxamide] | ≤ 100 nM
O=C(Nc1ccc(-c2nnc(NCCCN3CCCCC3)o2)c(Cl)c1)C1CCCCC1 [Example 163, N-[3-chloro-4-(5-{[3-(1-piperidinyl)propyl]amino}-1,3,4-oxadiazol-2-yl)phenyl]cyclohexanecarboxamide] | ≤ 1000 nM
O=C(Nc1ccc(-c2nnc(NCCCCN3CCOCC3)o2)c(F)c1)C1CCCCC1 [Example 58, N-[3-fluoro-4-(5-{[4-(4-morpholinyl)butyl]amino}-1,3,4-oxadiazol-2-yl)phenyl]cyclohexanecarboxamide] | ≤ 1000 nM
COc1cc(NC(=O)C2CCCCC2)ccc1-c1nnc(NCCCCN2CCCC2)o1 [Example 78, N-[3-(methyloxy)-4-(5-{[4-(1-pyrrolidinyl)butyl]amino}-1,3,4-oxadiazol-2-yl)phenyl]cyclohexanecarboxamide] | ≤ 100 nM
COc1cc(NC(=O)C2CCCCC2)ccc1-c1nnc(NCCCCN2CCOCC2)o1 [Example 80, N-[3-(methyloxy)-4-(5-{[4-(4-morpholinyl)butyl]amino}-1,3,4-oxadiazol-2-yl)phenyl]cyclohexanecarboxamide] | ≤ 1000 nM
O=C(Nc1ccc(-c2nnc(NCCCCN3CCC(F)CC3)o2)c(F)c1)c1ccccc1F [Example 26, 2-Fluoro-N-[3-fluoro-4-(5-{[4-(4-fluoro-1-piperidinyl)butyl]amino}-1,3,4-oxadiazol-2-yl)phenyl]benzamide] | ≤ 100 nM

Further lines, results first:

EC50 | Compound
≤ 1000 nM | O=C(Nc1ccc(-c2nnc(NCCCN3CCCC3)o2)c(F)c1)c1ccccc1 [Example 107, N-[3-fluoro-4-(5-{[3-(1-pyrrolidinyl)propyl]-amino}-1,3,4-oxadiazol-2-yl)phenyl]benzamide]
≤ 1000 nM | CCN(CC)CCCCNc1nnc(-c2ccc(NC(=O)C3CCCCC3)cc2F)o1 [Example 60, N-[4-(5-{[4-(diethylamino)butyl]amino}-1,3,4-oxadiazol-2-yl)-3-fluorophenyl]cyclohexanecarboxamide]
≤ 1000 nM | CCN(CC)CCCNc1nnc(-c2ccc(NC(=O)c3ccccc3)cc2)o1 [Example 118, N-[4-(5-{[3-(diethylamino)propyl]amino}-1,3,4-oxadiazol-2-yl)phenyl]benzamide]
≤ 100 nM | CCN(CC)CCCCNc1nnc(-c2ccc(NC(=O)c3ccccc3F)cc2C(F)(F)F)o1 [Example 89, N-[4-(5-{[4-(diethylamino)butyl]amino}-1,3,4-oxadiazol-2-yl)-3-(trifluoromethyl)phenyl]-2-fluorobenzamide]
≤ 1000 nM | O=C(Nc1ccc(-c2nnc(NCCCN3CCCCC3)o2)cc1)c1cccc(Cl)c1 [Example 12, 3-Chloro-N-[4-(5-{[3-(1-piperidinyl)propyl]amino}-1,3,4-oxadiazol-2-yl)phenyl]benzamidehydrochloride]
≤ 1000 nM | CCN(CC)CCCNc1nnc(-c2ccc(NC(=O)C3CCCCC3)cc2OC)o1 [Example 81, N-[4-(5-{[3-(diethylamino)propyl]amino}-1,3,4-oxadiazol-2-yl)-3-(methyloxy)phenyl]cyclohexanecarboxamide]
≤ 1000 nM | CCN(CC)CCCNc1nnc(-c2ccc(NC(=O)C3CCCCC3)cc2)o1 [Example 149, N-[4-(5-{[3-(diethylamino)propyl]amino}-1,3,4-oxadiazol-2-yl)phenyl]cyclohexanecarboxamide]
≤ 1000 nM | CCN(CC)CCCCNc1nnc(-c2ccc(NC(=O)c3ccccc3F)cc2F)o1 [Example 51, N-[4-(5-{[4-(diethylamino)butyl]amino}-1,3,4-oxadiazol-2-yl)-3-fluorophenyl]-2-fluorobenzamide]
≤ 1000 nM | CCN(CC)CCCNc1nnc(-c2ccc(NC(=O)c3ccccc3)cc2Cl)o1 [Example 103, N-[3-chloro-4-(5-{[3-(diethylamino)propyl]amino}-1,3,4-oxadiazol-2-yl)phenyl]benzamide]

From US20090105217A1, “2-PHENYL-5-AMINO-1,3,4-OXADIAZOLES AND THEIR USE AS NICOTINIC ACETYLCHOLINE RECEPTOR LIGANDS” (priority 2007, published 2009)
